# Article PMC8861568, “Identification of (Z)-2-benzylidene-dihydroimidazothiazolone derivatives as tyrosinase inhibitors: Anti-melanogenic effects and in silico studies” (Computational and Structural Biotechnology Journal, 2022)
# Tests used:
# [1] = target: T1, tyrosinase in B16F10 cells (Mus musculus, UniProt P11344); assay: Cellular tyrosinase inhibition assay in B16F10 cells; type: cell-based, murine; conditions: 48 h; for cellular tyrosinase activity: 5, 10, 20 μM, α-MSH 1 μM + IBMX 200 μM
# T1 construct: endogenous in cells; host or cells: B16F10 murine melanoma cells (ATCC), stimulated with alpha-MSH and IBMX
# T1 sequence (P11344 19-533): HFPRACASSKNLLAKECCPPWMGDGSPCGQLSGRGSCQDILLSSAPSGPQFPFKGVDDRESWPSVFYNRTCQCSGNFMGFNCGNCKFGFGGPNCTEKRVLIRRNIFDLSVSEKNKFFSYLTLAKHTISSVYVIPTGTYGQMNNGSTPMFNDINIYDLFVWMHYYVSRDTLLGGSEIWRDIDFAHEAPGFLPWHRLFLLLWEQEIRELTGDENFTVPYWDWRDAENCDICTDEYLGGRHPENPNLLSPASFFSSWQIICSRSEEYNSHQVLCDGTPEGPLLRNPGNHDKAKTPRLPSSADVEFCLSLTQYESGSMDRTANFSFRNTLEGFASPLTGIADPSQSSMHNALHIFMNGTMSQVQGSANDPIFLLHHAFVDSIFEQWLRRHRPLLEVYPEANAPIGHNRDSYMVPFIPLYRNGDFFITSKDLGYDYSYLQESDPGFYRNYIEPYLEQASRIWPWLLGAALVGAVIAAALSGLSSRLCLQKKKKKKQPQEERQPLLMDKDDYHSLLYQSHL
# Experimental: B16F10 cells co-stimulated with α -melanocyte-stimulating hormone (α -MSH) and 3-isobutyl-1-methylxanthine (IBMX) were used to investigate the inhibitory effects of compounds 1b and 1f on mammal cellular tyrosinase. Kojic acid was used as the positive control. […] Cellular tyrosinase activities were determined by measuring optical densities at 492 nm.
# Cellular tyrosinase inhibition assays were conducted as previously described with minor modification. B16F10 cells were seeded at a density of 1 × 10^5 cells/well in 6-well plates and incubated in a humidified 5% CO2 atmosphere for 24 h at 37 °C. […] Cells were then washed twice with PBS, lysed by adding 45 mM of phosphate buffer (100 µL) containing 1% Triton X-100 (5 µL) and 1% PMSF (5 µL, phenylmethylsulfonyl fluoride) and frozen at −80 °C for 1 h. Lysates were clarified by centrifugation at 12,000 rpm for 30 min at 4 °C. Cell lysate supernatants (80 µL/well) in a 96-well plate were then mixed with 20 µL of L-DOPA (2 mg/mL in distilled water) and incubated for 30 min at 37 °C. Absorbances of reaction mixtures at 492 nm were recorded using a microplate reader (VersaMax^TM, Molecular Devices, Sunnyvale, CA, USA). Kojic acid was used as the positive control. Protein concentrations were determined using Bicinchoninic Acid (BCA) protein assay reagent using Bovine Serum Albumin (BSA) as the standard (Thermo Scientific, Rockford, IL, USA). All experiments were independently conducted three times.
# B16F10 cells = assay: Intracellular melanin content in B16F10 cells; type: cell-based, murine; conditions: 48 h; for intracellular melanin production compared with kojic acid: α-MSH + IBMX; for intracellular melanin production: 5, 10, 20 μM, α-MSH 1 μM + IBMX 200 μM
# Experimental: To determine whether the inhibitory effects of compounds 1b and 1f on cellular TYR influence melanogenesis, cellular melanin production was measured. As was performed in TYR inhibition experiments, B16F10 cells co-stimulated with α -MSH and IBMX were used to compare the inhibitory effects of 1b and 1f on melanogenesis. Kojic acid was used as the positive control. […] Intracellular melanin contents were determined by measuring optical densities at 405 nm.
# The inhibitory effects of compounds 1b and 1f on intracellular melanin contents were investigated as previously described. B16F10 cells were seeded at a density of 1 × 10^5 cells/well in 6-well plates and incubated in a humidified 5% CO2 atmosphere for 24 h at 37 °C. […] For extracellular melanin contents, the optical density of the cell culture media was directly measured at 405 nm. On the other hand, for intracellular melanin contents, the following procedure was performed. Briefly, after washing twice with PBS, adherent cells were detached by incubation in Trypsin/EDTA for 1 min. Pellets were dissolved in 100 μL of 1 N NaOH and then incubated for 1 h at 60 °C to dissolve the melanin. Intracellular melanin was quantified by measuring optical densities at 405 nm using a microplate reader (VersaMax^TM, Molecular Devices, Sunnyvale, CA, USA). Results were normalized versus cell pellet total protein using BCA protein assay reagent using BSA as the standard (Thermo Scientific, Rockford, IL, USA). The intracellular melanin contents were calculated using the following equation: (ΔODsample/ΔODcontrol) × 100%; where ΔODsample = the optical density of the test compound, and ΔODcontrol = the optical density of control. Experiments were performed in triplicate.
SMILES,"cellular tyrosinase inhibition compared with kojic acid ([1]; 1b at 10 μM, α-MSH + IBMX)",cellular tyrosinase activity [1],intracellular melanin production compared with kojic acid (B16F10 cells; 1b at 5 μM),intracellular melanin production (B16F10 cells),"intracellular melanin production compared with kojic acid (B16F10 cells; 1f at 20 μM, kojic acid 20 μM)"
"O=c1/c(=C/c2ccc(O)cc2O)sc2n1CCN=2 [Compound 1b, (Z)-2-(2,4-Dihydroxybenzylidene)-5,6-dihydroimidazo[2,1-b]thiazol-3(2H)-one]",to the same extent as compound 1f or kojic acid at 20 μM,significantly and concentration-dependently reduced this increase in tyrosinase activity,by the same extent as kojic acid at 20 μM,significantly and concentration-dependently suppressed this increase,
"COc1ccc(/C=c2\sc3n(c2=O)CCN=3)cc1O [Compound 1f, (Z)-2-(3-Hydroxy-4-methoxybenzylidene)-5,6-dihydroimidazo[2,1-b]thiazol-3(2H)-one]",,significantly and concentration-dependently reduced this increase in tyrosinase activity,,significantly and concentration-dependently suppressed this increase,stronger inhibitory effect on melanogenesis than kojic acid
